Results reported in patent US6451807B1, “Methods of treating sexual dysfunction in an individual suffering from a retinal disease, class 1 congestive heart failure, or myocardial infarction using a PDE5 inhibitor” (Lilly Icos, LLC., priority 1999, dated 2002).

Legend:
Bovine PDE6 = target: T1, Bovine PDE6 (Bos taurus, UniProt P11541+P23439); assay: PDE6 enzyme inhibition, IC50 determination; assay type: biochemical
T1 construct: Hypotonic extracts were prepared by suspending isolated ROS; tissue Dr. N. Virmaux, INSERM U338, Strasbourg; host or cells: bovine retina, rod outer segment hypotonic extract
T1 sequence (P11541 2-856 limits assumed): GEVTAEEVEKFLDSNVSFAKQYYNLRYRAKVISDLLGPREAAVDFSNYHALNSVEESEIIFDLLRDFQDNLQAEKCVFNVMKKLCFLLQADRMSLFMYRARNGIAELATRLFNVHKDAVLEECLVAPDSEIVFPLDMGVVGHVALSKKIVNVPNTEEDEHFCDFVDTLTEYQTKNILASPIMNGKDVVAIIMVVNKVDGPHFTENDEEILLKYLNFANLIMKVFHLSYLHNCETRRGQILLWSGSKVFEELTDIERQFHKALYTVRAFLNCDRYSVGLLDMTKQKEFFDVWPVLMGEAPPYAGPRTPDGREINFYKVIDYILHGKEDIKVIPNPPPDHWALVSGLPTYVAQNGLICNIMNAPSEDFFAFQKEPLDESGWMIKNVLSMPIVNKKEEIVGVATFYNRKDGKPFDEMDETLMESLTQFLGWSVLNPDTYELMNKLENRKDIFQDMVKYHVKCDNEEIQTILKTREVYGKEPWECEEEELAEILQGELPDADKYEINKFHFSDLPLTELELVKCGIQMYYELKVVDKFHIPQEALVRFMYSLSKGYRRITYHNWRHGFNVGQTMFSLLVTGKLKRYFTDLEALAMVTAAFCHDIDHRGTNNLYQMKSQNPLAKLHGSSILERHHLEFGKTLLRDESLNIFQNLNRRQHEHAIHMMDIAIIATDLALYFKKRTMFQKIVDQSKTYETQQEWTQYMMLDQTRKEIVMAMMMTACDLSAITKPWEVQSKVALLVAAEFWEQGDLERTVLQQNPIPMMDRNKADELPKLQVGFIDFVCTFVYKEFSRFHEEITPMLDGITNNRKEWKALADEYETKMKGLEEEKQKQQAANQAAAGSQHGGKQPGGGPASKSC
T1 sequence (P23439 2-850 limits assumed): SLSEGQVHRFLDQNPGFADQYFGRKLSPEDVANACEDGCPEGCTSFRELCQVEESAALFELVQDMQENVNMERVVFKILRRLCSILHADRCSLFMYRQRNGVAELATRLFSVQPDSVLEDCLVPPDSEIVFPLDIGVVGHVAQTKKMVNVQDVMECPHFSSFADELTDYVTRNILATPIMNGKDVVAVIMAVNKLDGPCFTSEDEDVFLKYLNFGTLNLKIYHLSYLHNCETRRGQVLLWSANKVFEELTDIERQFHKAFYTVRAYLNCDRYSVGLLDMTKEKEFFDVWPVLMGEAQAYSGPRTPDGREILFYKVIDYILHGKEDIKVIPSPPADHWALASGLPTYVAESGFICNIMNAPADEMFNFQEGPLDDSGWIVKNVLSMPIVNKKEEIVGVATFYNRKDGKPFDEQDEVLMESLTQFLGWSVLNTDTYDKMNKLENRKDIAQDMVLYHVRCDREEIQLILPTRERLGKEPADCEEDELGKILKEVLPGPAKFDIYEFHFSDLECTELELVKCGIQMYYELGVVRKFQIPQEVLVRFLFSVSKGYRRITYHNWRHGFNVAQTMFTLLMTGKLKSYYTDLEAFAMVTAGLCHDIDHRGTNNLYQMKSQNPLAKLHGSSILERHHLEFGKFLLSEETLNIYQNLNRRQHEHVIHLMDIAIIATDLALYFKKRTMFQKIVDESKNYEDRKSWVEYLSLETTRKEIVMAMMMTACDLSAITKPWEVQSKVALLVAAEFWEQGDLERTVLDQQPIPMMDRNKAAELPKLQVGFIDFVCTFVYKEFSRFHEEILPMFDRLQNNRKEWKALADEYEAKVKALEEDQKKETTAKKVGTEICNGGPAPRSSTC
T1 sequence (P04972 1-87 partner): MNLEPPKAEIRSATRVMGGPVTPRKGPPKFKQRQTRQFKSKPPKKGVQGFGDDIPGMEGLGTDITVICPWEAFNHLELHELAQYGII
Experimental: Bovine PDE6 was supplied by Dr. N. Virmaux, INSERM U338, Strasbourg. Bovine retinas were prepared as described by Virmaux et al., FEBS Letters, 12(6), pp. 325-328 (1971) and see also, A. Sitaramayya et al., Exp. Eye Res., 25, pp. 163-169 (1977). Briefly, unless stated otherwise, all operations were done in the cold and in dim red light. Eyes were kept in the cold and in the dark for up to four hours after slaughtering.
Preparation of bovine retinal outer segment (ROS) basically followed procedures described by Schichi et al., J. Biol. Chem., 224:529 (1969). In a typical experiment, 35 bovine retinas were ground in a mortar with 35 mL 0.066 M phosphate buffer, pH 7.0, made up to 40% with sucrose, followed by homogenization in a Potter homogenizer (20 up and down strokes). The suspension was centrifuged at 25,000×g for 20 minutes. The pellet was homogenized in 7.5 mL 0.006 M phosphate buffer (40% in sucrose), and carefully layered under 7.5 mL of phosphate buffer (containing no sucrose). Centrifugation was conducted in a swing-out rotor at 45,000×g for 20 minutes, and produced a pellet which is black at the bottom, and also a red band at the interface 0.066 M. phosphate—40% sucrose/0.066 M phosphate (crude ROS). The red material at the interface was removed, diluted with phosphate buffer, spun down to a pellet, and redistributed in buffered 40% sucrose as described above. This procedure was repeated 2 or 3 times until no pellet was formed. The purified ROS was washed in phosphate buffer and finally spun down to a pellet at 25,000×g for 20 minutes. All materials were then kept frozen until used.
Hypotonic extracts were prepared by suspending isolated ROS in 10 mM Tris-Cl pH 7.5, 1 mM EDTA, and 1 mM dithioerythritol, followed by centrifugation at 100,000×g for 30 minutes.
The preparation was reported to have a specific activity of about 35 nmoles cGMP hydrolyzed per minute per milligram protein.
Biophys. Acta, 384:430 (1975).

[1] = test system: male erectile dysfunction; assay: Combined clinical studies, IIEF erectile function domain; assay type: in vivo, human

CN1CC(=O)N2[C@H](c3ccc4c(c3)OCO4)c3[nH]c4ccccc4c3C[C@@H]2C1=O [Compound 5, (6R-trans)-6-(1,3-benzodioxol-5-yl)-2,3,6,7,12,12a-hexahydro-2-methylpyrazino[1′,2′:1,6]pyrido[3,4-b]indole-1,4-dione]
IC50 (Bovine PDE6): 3.4 µM
treatment of male erectile dysfunction ([1]; combined results from clinical studies): effectively treats male erectile dysfunction
IIEF erectile function domain (change from baseline), Mean ± SD ([1]; unit dose 2 mg): 3.9 ± 6.1
IIEF erectile function domain (change from baseline), Mean ± SD ([1]; unit dose 5 mg): 6.6 ± 7.1
IIEF erectile function domain (change from baseline), Mean ± SD ([1]; unit dose 10 mg): 7.9 ± 6.7
IIEF erectile function domain (change from baseline), Mean ± SD ([1]; unit dose 25 mg): 9.4 ± 7.0
IIEF erectile function domain (change from baseline), Mean ± SD ([1]; unit dose 50 mg): 9.8 ± 5.5
IIEF erectile function domain (change from baseline), Mean ± SD ([1]; unit dose 100 mg): 8.4 ± 6.1
